The test system of the experiment is TFEB. The experiment can be described thus: TFEB nuclear translocation assay, HeLa wt cells. It is filed as cell-based. As to conditions: 2 hrs compound treatment, Table 1 does not say HeLa wt or TRPML1 KO. In a few lines: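 HeLa wt cells were treated with compound for 2 hrs at 37° C, then fixed in 4% PFA and immunostained for TFEB with an Alexa 488 secondary and Hoechst nuclear counterstain. Automated epifluorescence imaging at ×20 gave the ratio of nuclear TFEB intensity to a perinuclear ring region, from which AC50 was derived.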

For the setting “Homo sapiens, HeLa, 2 h”, `CN(C)S(=N)(=O)c1ccc(S(=O)(=O)Nc2ccccc2N2CCC(O)(c3ccc(Cl)cc3F)CC2)cc1` (centres unmarked) [Compound A-143, 4-({2-[4-(4-chloro-2-fluorophenyl)-4-hydroxypiperidin-1-yl]phenyl}sulfamoyl)-N,N-dimethylbenzene-1-sulfonoimidamide] returned an AC50 of at most 2 µM.
In turn, `CC(C)(C)C(=O)N1CCN(c2ccccc2NS(=O)(=O)c2ccc(C(F)(F)C(F)(F)F)cc2)CC1` [Compound A-537, N-{2-[4-(2,2-dimethylpropanoyl)piperazin-1-yl]phenyl}-4-(1,1,2,2,2-pentafluoroethyl)benzene-1-sulfonamide] had an AC50 (Homo sapiens, HeLa, 2 h) of 8.01 to 9.99 µM.
Still for that read-out and setting: the same measure for `COCC1(C)CCN(c2ccccc2NS(=O)(=O)Cc2cccc(S(C)(=O)=O)c2)CC1` [Compound A-586, l-(3-methanesulfonylphenyl)-N-{2-[4-(methoxymethyl)-4-methylpiperidin-1-yl]phenyl}methanesulfonamide]: 8.01 to 9.99 µM.
As to `Cc1cnc(N2CCC(CN3CCC(F)(F)CC3)CC2)c(C(C)S(=O)(=O)c2ccc3c(c2)CCC3)c1` (single isomer, unassigned) [Compound A-1000, 2-(4-((4,4-difluoropiperidin-1-yl)methyl)piperidin-1-yl)-3-(1-((2,3-dihydro-1H-inden-5-yl)sulfonyl)ethyl)-5-methylpyridine], the AC50 was at least 10 µM.
Consider `O=S(=O)(Nc1cccc(N2CCC(c3ccc(Cl)cc3F)CC2)c1)c1ccc(F)cc1` [Compound A-128, N-{3-[4-(4-chloro-2-fluorophenyl)piperidin-1-yl]phenyl}-4-fluorobenzene-1-sulfonamide], for which the AC50 (Homo sapiens, HeLa, 2 h) was at least 10 µM.
Where the note is “Homo sapiens, HeLa, 2 h”, `CN(C)S(=O)(=O)c1ccc(S(=O)(=O)Nc2ccccc2N2CCN(C(=O)C34CC5CC(CC(C5)C3)C4)CC2)cc1` [Compound A-399, N4-{2-[4-(adamantane-1-carbonyl)piperazin-1-yl]phenyl}-N1,N1-dimethylbenzene-1,4-disulfonamide] registered an AC50 of at most 2 µM.
The same measure, in the same setting: the same measure for `CC1(C)CC2(CCN(c3ccccc3NS(=O)(=O)c3ccc4c(c3)CCC4)CC2)CO1` [Compound A-713, N-(2-{3,3-dimethyl-2-oxa-8-azaspiro[4.5]decan-8-yl}phenyl)-2,3-dihydro-1H-indene-5-sulfonamide]: at most 2 µM; for `CN(C)S(=O)(=O)c1ccc(S(=O)(=O)Nc2ccccc2N2CCC(C)(C3(O)CC3)CC2)cc1` [Compound A-558, N1-(2-(4-(1-hydroxycyclopropyl)-4-methylpiperidin-1-yl)phenyl)-N4,N4-dimethylbenzene-1,4-disulfonamide]: 2.01 to 8 µM.
Still for that read-out and setting: the same measure for `O=C(c1ccc(S(=O)(=O)Nc2ccccc2N2CCC(c3ccc(Cl)cc3F)CC2)cc1)N1CCCC1` [Compound A-49, N-{2-[4-(4-chloro-2-fluorophenyl)piperidin-1-yl]phenyl}-4-(pyrrolidine-1-carbonyl)benzene-1-sulfonamide]: at least 10 µM; for `CS(=O)(=O)c1ccc(S(=O)(=O)Nc2cccc(Cl)c2N2CCOCC2)cc1` [Compound A-275, N-[3-chloro-2-(morpholin-4-yl)phenyl]-4-methanesulfonylbenzene-1-sulfonamide]: at least 10 µM.
For `COCC1(C(F)(F)F)CCN(c2ccccc2NS(=O)(=O)c2ccc(S(=O)(=O)N(C)C)cc2)CC1` [Compound A-777, N4-2-[4-(methoxymethyl)-4-(trifluoromethyl)piperidin-1-yl]phenyl-N1,N1-dimethylbenzene-1,4-disulfonamide], the AC50 (Homo sapiens, HeLa, 2 h) was at most 2 µM.
Where the note is “Homo sapiens, HeLa, 2 h”, `CN(C)S(=O)(=O)c1ccc(S(=O)(=O)Nc2ccccc2N2CCC3(CCCCO3)CC2)cc1` [Compound A-562, N1,N1-dimethyl-N4-(2-{1-oxa-9-azaspiro[5.5]undecan-9-yl}phenyl)benzene-1,4-disulfonamide] gave an AC50 of at most 2 µM.
On the same count and under the same terms, next, `CCC(C)(C)CC(=O)N1CCN(c2ccccc2NS(=O)(=O)c2ccc(S(=O)(=O)N(C)C)cc2)CC1` [Compound A-426, N4-{2-[4-(3,3-dimethylpentanoyl)piperazin-1-yl]phenyl}-N1,N1-dimethylbenzene-1,4-disulfonamide]: at most 2 µM; `CN(C)S(=O)(=O)c1ccc(S(=O)(=O)Nc2ccccc2N2CCN(C34CC(C3)C4)CC2)cc1` [Compound A-179, N4-[2-(4-{bicyclo[1.1.1]pentan-1-yl}piperazin-1-yl)phenyl]-N1,N1-dimethylbenzene-1,4-disulfonamide]: at most 2 µM; `CN(C)S(=O)(=O)c1ccc(S(=O)(=O)Nc2ccccc2N2CC(c3ccc(Cl)cc3)C2)cc1` [Compound A-56, N4-{2-[3-(4-chlorophenyl)azetidin-1-yl]phenyl}-N1,N1-dimethylbenzene-1,4-disulfonamide]: 2.01 to 8 µM.
On to `C[C@@H]1CN(CC2CCN(c3c(F)cccc3NS(=O)(=O)c3ccc(S(=O)(=O)N(C)C)cc3)CC2)C[C@H](C)O1` [Compound A-755, N4-[2-(4-{[(2R,6S)-2,6-dimethylmorpholin-4-yl]methyl}piperidin-1-yl)-3-fluorophenyl]-N1,N1-dimethylbenzene-1,4-disulfonamide], for which, where the note is “Homo sapiens, HeLa, 2 h”, the AC50 was at most 2 µM.
`CN(C)S(=O)(=O)c1ccc(S(=O)(=O)Nc2ccccc2N2CCC(C)(COC(F)(F)F)CC2)cc1` [Compound A-784, N1,N1-dimethyl-N4-(2-{4-methyl-4-[(trifluoromethoxy)methyl]piperidin-1-yl}phenyl)benzene-1,4-disulfonamide] returned an AC50 (Homo sapiens, HeLa, 2 h) of at most 2 µM.
The same measure, in the same setting: next, `COCC1(C)CCN(c2ccccc2NS(=O)(=O)c2ccc3c(c2)CCOC3)CC1` [Compound A-727, N-{2-[4-(methoxymethyl)-4-methylpiperidin-1-yl]phenyl}-3,4-dihydro-1H-2-benzopyran-6-sulfonamide]: 2.01 to 8 µM.
`CC(c1cccc(F)c1N1CCC(CN2C[C@H]3C[C@@H](C2)O3)CC1)S(=O)(=O)c1ccc(S(=O)(=O)N(C)C)cc1` (single isomer, unassigned) [Compound A-849]: the AC50 is 2.01 to 8 µM.
In turn, `CN(C)S(=O)(=O)c1ccc(S(=O)(=O)Nc2ccccc2N2CC3CN(Cc4ccccc4)CC3C2)cc1` (centres unmarked) [Compound A-502, N4-(2-{5-benzyl-octahydropyrrolo[3,4-c]pyrrol-2-yl}phenyl)-N1,N1-dimethylbenzene-1,4-disulfonamide; formic acid] returned an AC50 (Homo sapiens, HeLa, 2 h) of at most 2 µM.
Still for that read-out and setting: next, `CC1(C)CC2(CCN(c3ccccc3NS(=O)(=O)c3ccc(C(F)F)cc3)CC2)CO1` [Compound A-671, 4-(difluoromethyl)-N-(2-{3,3-dimethyl-2-oxa-8-azaspiro[4.5]decan-8-yl}phenyl)benzene-1-sulfonamide]: at most 2 µM.
Same read-out and setting: next, `CN(C)S(=O)(=O)c1ccc(S(=O)(=O)Nc2ccccc2N2CCC(C(N)=O)(c3ccc(F)cc3F)CC2)cc1` [Compound A-163, 4-(2,4-difluorophenyl)-1-{2-[4-(dimethylsulfamoyl)benzenesulfonamido]phenyl}piperidine-4-carboxamide]: at least 10 µM.
Same read-out and setting: the same measure for `CC(c1cccc(F)c1N1CCC(C)(C(F)F)CC1)S(=O)(=O)c1ccc(C(F)F)cc1` (single isomer, unassigned) [Compound A-963, 4-(difluoromethyl)-1-(2-(1-((4-(difluoromethyl)phenyl)sulfonyl)ethyl)-6-fluorophenyl)-4-methylpiperidine]: 2.01 to 8 µM; for `CN(C)S(=O)(=O)c1ccc(S(=O)(=O)N2C(=O)N(C3CCN(c4ccc(Cl)cc4F)CC3)C(=O)C2(C)C)cc1` [Compound A-294, 4-({3-[1-(4-chloro-2-fluorophenyl)piperidin-4-yl]-5,5-dimethyl-2,4-dioxoimidazolidin-1-yl}sulfonyl)-N,N-dimethylbenzene-1-sulfonamide]: at least 10 µM; for `CC(C)S(=O)(=O)c1ccc(S(=O)(=O)Nc2ccccc2N2CCC(O)(c3ccc(F)cn3)CC2)cc1` [Compound A-413]: 8.01 to 9.99 µM.
The compound `CC1(C)Cc2cc(S(=O)(=O)Nc3cccc(F)c3N3CCC(CN4C5COCC4C5)CC3)ccc2O1` [Compound A-875, N-{3-fluoro-2-[4-({3-oxa-6-azabicyclo[3.1.1]heptan-6-yl}methyl)piperidin-1-yl]phenyl}-2,2-dimethyl-2,3-dihydro-1-benzofuran-5-sulfonamide] displayed an AC50 (Homo sapiens, HeLa, 2 h) of at least 10 µM.
With `CC(c1cccc(F)c1N1[C@@H]2CCC[C@H]1CC2)S(=O)(=O)c1ccc(S(=N)(=O)N(C)C)cc1` (single isomer, unassigned) [Compound A-988, 4-((1-(2-(8-azabicyclo[3.2.1]octan-8-yl)-3-fluorophenyl)ethyl)sulfonyl)-N,N-dimethylbenzenesulfonimidamide], the AC50 (Homo sapiens, HeLa, 2 h) is at least 10 µM.
`CN(C)S(=O)(=O)c1ccc(S(=O)(=O)Nc2ccccc2N2CC3(CN(c4ccc(Cl)cc4F)C3)C2)cc1` [Compound A-296, N1-(2-(6-(4-chloro-2-fluorophenyl)-2,6-diazaspiro[3.3]heptan-2-yl)phenyl)-N4,N4-dimethylbenzene-1,4-disulfonamide]: the AC50 (Homo sapiens, HeLa, 2 h) was 2.01 to 8 µM.
The same measure, in the same setting: next, `Cc1ccc(S(=O)(=O)Nc2ccccc2N2CCC(O)(c3ccc(F)cn3)CC2)cc1` [Compound A-408, N-{2-[4-(5-fluoropyridin-2-yl)-4-hydroxypiperidin-1-yl]phenyl}-4-methylbenzene-1-sulfonamide]: at least 10 µM.
Compound `C[C@@H]1CN(c2nn(S(=O)(=O)c3ccc(S(=O)(=O)N(C)C)cc3)c3ccccc23)C[C@H](C)C1F` (stereo partly drawn) [Compound A-969, 4-({3-[(3R,5S)-4-fluoro-3,5-dimethylpiperidin-1-yl]-1H-indazol-1-yl}sulfonyl)-N,N-dimethylbenzene-1-sulfonamide] returned an AC50 (Homo sapiens, HeLa, 2 h) of at most 2 µM.
Consider `O=S(=O)(Nc1ccccc1N1CCCC1)c1ccc2c(c1)OCCCO2` [Compound A-372, N-[2-(pyrrolidin-1-yl)phenyl]-3,4-dihydro-2H-1,5-benzodioxepine-7-sulfonamide], for which the AC50 (Homo sapiens, HeLa, 2 h) lay in the range of 2.01 to 8 µM.
Still for that read-out and setting: next, `CCN(CC)CC1CCN(c2ccccc2NS(=O)(=O)c2ccc(S(=O)(=O)N(C)C)cc2)CC1` [Compound A-549, N4-(2-{4-[(diethylamino)methyl]piperidin-1-yl}phenyl)-N1,N1-dimethylbenzene-1,4-disulfonamide]: 2.01 to 8 µM.

Usually AC50 stands for the concentration at which the activity in the assay is half-maximal.

(Values after patent US20230104936A1, “TRPML MODULATORS” (Casma Therapeutics, Inc., priority 2019, published 2023).)
